Data as given in patent US4574080A, “Combination formulation” (A/S Alfred Benzon, priority 1982, dated 1986).

How the values were obtained:
[1] = Diuretic effect (urine volume) in healthy subjects; format: in vivo, human (healthy subjects); settings: clopamide 20 mg
Method: Complete balanced cross-over study with single dose administration.
Blood samples were collected 36 hours and urine samples 24 hours after administration.
10 healthy subjects without any history of renal, hepatic, gastrointestinal or heart disease.
Clopamide 20 mg and potassium chloride 2400 mg (32 mEq):
Two days before drug administration and throughout the test days the volunteers were kept on a low potassium diet (less than 30 mEq) and a standardized calorie intake of about 2000 kcal per day. No tea, coffee or alcohol was allowed. For the individual person the diet was identical on all six test days (2 period of 3 days).
The day before drug aministration the volunteers were given 100 ml water every hour from 09.00 a.m. during the next 12 hours, i.e. 1300 ml water per day. The same procedure was followed on the test day.
Blood samples were drawn before dosing and 1, 2, 3, 4, 6, 8, 12, 24 and 36 hours after. Urine was collected quantitatively 24 hours before drug administration and 24 hours after in aliquots: 0-1 h, 1-2 h, 2-3 h, 3-4 h, 4-6 h, 6-8 h, 8-12 h, and 12-24 h.
Data which fulfil the requirement for using parametric tests were analyzed by a three-way analysis of variance, splitting the total variation up into variations between subjects, treatment periods, treatment and residual. Logarithmic transformations of the variables have been used in appropriate cases.

[2] = Adhesion of clopamide to (film-coated) potassium chloride crystals after dry coating / mechanical stress; format: physicochemical; settings: for A: amount of clopamide adhered immediately after the dry coating / B: clopamide adhered per dose of finished granulate / C: clopamide removed during mixing of the granulate (A-B): Table 2, Talc 2.0 ×
Method: A sample containing film-coated KCl-crystals with clopamide adhered to the surface was placed on a sieve.
The sieve and sample were shaken (Pascal sieve, model 1) for 15 minutes. The quantity of clopamide adhered to the film-coated crystals was then determined as described under Content Uniformity (clopamide)
The amount of clopamide adhered was determined as described under MATERIALS AND METHODS. In Table 1, the influence of the anti-adhesive and the coating time on the adhesion tendency of clopamide is shown.
As a considerable amount of the clopamide (about 20%) is removed by the admixture of the necessary auxiliary materials for the tabletting process (vide Table 1), it was examined whether a more gentle, but more laborious method in which the auxiliary materials are premixed separately, thus reducing the final mixing time, would reduce this removal.
The examinations were carried out as described above for the examination of the adhesion tendency of clopamide, and the amount of clopamide adhered was again determined as described under MATERIALS AND METHODS; the dry coating time was 60 minutes. The results are shown in Table 3 wherein A, B and C are as described above, and D designates the relative amount of adhered clopamide abrased during the final mixing [formula]

[3] = treatment days compared to control days
[4] = Colloidal silicon dioxide 0.13 × the amount of clopamide, coating time 10 min
[5] = Colloidal silicon dioxide 0.13 × the amount of clopamide, coating time 30 min
[6] = Colloidal silicon dioxide 0.13 × the amount of clopamide, coating time 60 min
[7] = gentle admixture of auxiliary materials (5 min), coating time 60 min
[8] = usual admixture of auxiliary materials (11 min), coating time 60 min
[9] = Talc 2.0 × the amount of clopamide, coating time 10 min
[10] = Talc 2.0 × the amount of clopamide, coating time 30 min
[11] = Talc 2.0 × the amount of clopamide, coating time 60 min
[12] = Talc […] the amount of clopamide, coating time 10 min
[13] = Talc […] the amount of clopamide, coating time 30 min
[14] = Talc […] the amount of clopamide, coating time 60 min

- A: amount of clopamide adhered in percent of the theoretical dose immediately after the dry coating [2, 4]: 70.4%
- B: percentage of the theoretical dose of clopamide adhered per dose of finished granulate [2, 4]: 60.2%
- C: percentage of a dose of clopamide removed during the mixing of the granulate (A-B) [2, 4]: 10.2%
- A: amount of clopamide adhered in percent of the theoretical dose immediately after the dry coating [2, 5]: 75.2%
- B: percentage of the theoretical dose of clopamide adhered per dose of finished granulate [2, 5]: 58.8%
- C: percentage of a dose of clopamide removed during the mixing of the granulate (A-B) [2, 5]: 16.4%
- A: amount of clopamide adhered in percent of the theoretical dose immediately after the dry coating [2, 6]: 85.8%
- B: percentage of the theoretical dose of clopamide adhered per dose of finished granulate [2, 6]: 66.6%
- C: percentage of a dose of clopamide removed during the mixing of the granulate (A-B) [2, 6]: 19.2%
- A: amount of clopamide adhered immediately after the dry coating [2, 7]: 83.0%
- B: clopamide adhered per dose of finished granulate [2, 7]: 70.0%
- C: clopamide removed during mixing of the granulate (A-B) [2, 7]: 13.0%
- A: amount of clopamide adhered immediately after the dry coating [2, 8]: 86.2%
- B: clopamide adhered per dose of finished granulate [2, 8]: 70.6%
- C: clopamide removed during mixing of the granulate (A-B) [2, 8]: 15.6%
- A: amount of clopamide adhered in percent of the theoretical dose immediately after the dry coating [2, 9]: 76.4%
- B: percentage of the theoretical dose of clopamide adhered per dose of finished granulate [2, 9]: 53.8%
- C: percentage of a dose of clopamide removed during the mixing of the granulate (A-B) [2, 9]: 22.6%
- A: amount of clopamide adhered in percent of the theoretical dose immediately after the dry coating [2, 10]: 87.6%
- B: percentage of the theoretical dose of clopamide adhered per dose of finished granulate [2, 10]: 65.4%
- C: percentage of a dose of clopamide removed during the mixing of the granulate (A-B) [2, 10]: 22.2%
- A: amount of clopamide adhered in percent of the theoretical dose immediately after the dry coating [2, 11]: 86.2%
- B: percentage of the theoretical dose of clopamide adhered per dose of finished granulate [2, 11]: 70.6%
- C: percentage of a dose of clopamide removed during the mixing of the granulate (A-B) [2, 11]: 15.6%
- A: amount of clopamide adhered in percent of the theoretical dose immediately after the dry coating [2, 12]: 96.4%
- B: percentage of the theoretical dose of clopamide adhered per dose of finished granulate [2, 12]: 65.0%
- C: percentage of a dose of clopamide removed during the mixing of the granulate (A-B) [2, 12]: 31.4%
- A: amount of clopamide adhered in percent of the theoretical dose immediately after the dry coating [2, 13]: 88.4%
- B: percentage of the theoretical dose of clopamide adhered per dose of finished granulate [2, 13]: 69.8%
- C: percentage of a dose of clopamide removed during the mixing of the granulate (A-B) [2, 13]: 18.6%
- A: amount of clopamide adhered in percent of the theoretical dose immediately after the dry coating [2, 14]: 100.2%
- B: percentage of the theoretical dose of clopamide adhered per dose of finished granulate [2, 14]: 78.6%
- C: percentage of a dose of clopamide removed during the mixing of the granulate (A-B) [2, 14]: 21.6%
- amount of clopamide removed by the admixture of the auxiliary materials ([2]; vide Table 1): about 20%
Compound: C[C@@H]1CCC[C@H](C)N1NC(=O)c1ccc(Cl)c(S(N)(=O)=O)c1 [Clopamide, 4-chloro-N--(cis-2,6-dimethylpiperidino)-3-sulfamoyl-benzamide]
- total 24 h urine, percent of that of control days ([1]; 95% CI 138.9 to 185.3%): 160.4%
- 24 hours urine volume (in words) [1, 3]: statistically significant increase
- hourly maximal urine volume (in words) [1, 3]: statistically significant increase
- effect of increased coating time on adhesion (in words) ([2]; talc as anti-adhesive): not only an increased adhesion, but also a more resistant adhesion
